{"source": "patent US4642314A", "about": "“Antiulcer compounds” (Nisshin Flour Milling Co., Ltd., priority 1984, dated 1987)", "key": {"[1]": {"assay": "acute toxicity (LD50), intraperitoneal route in mice", "type": "in vivo", "conditions": "mouse, in vivo, ip, Table 2"}, "[2]": {"test_system": "acetic acid-induced ulcer", "assay": "Acetic acid-induced ulcer (Curative test)", "type": "in vivo, rat (male SD rats)", "conditions": "Table 2; rat, 0.05 ml of 15% acetic acid underneath the serosa; lesion area on 14th day", "procedure": "In the case of reserpine-induced ulcer, the assay was performed according to the description in \"Arch. Int. Pharmacodym. Ther. 147,113 (1964)\", and in the case of acetic acid-induced ulcer, the assay was performed according to the method described in \"Jap. J. Pharmac. 19,418 (1969)\", by inducing experimental ulcer in rat and evaluating the effect thereon of the compounds tested.\nGroups of rats, each consisting of 6 male SD rats weighing 150-200 g were used. The stomach of ether-anesthesized rat was exposed and while taking acre not to injure blood vessels, 0.05 ml of 15% aqueous acetic acid solution was injected underneath the serosa. On the 14th day, the rats were killed with chloroform, the stomach taken out and the area of the infected lesion measured.\nThe curative ratio was calculated using the above equation: [formula]"}}}
{"smiles": "CC(C)=CCCC(C)=CCCC(C)=CCCC(C)=CCCC(C)=CCCC(C)=CCCC(C)=CCCC(C)=CCCC(C)=CCCC(C)=CCO", "note": "[Decaprenol]", "values": [{"measurement": "LD50", "setting": "[1]", "result": "> 4000", "unit": "mg/kg"}, {"measurement": "Curative effect (curative ratio)", "setting": "[2]", "result": "+++ (40%-)"}]}
{"smiles": "CCCCCCCC/C=C/CCCCCCCCCCCC(=O)OCC=C(C)CCC=C(C)CCC=C(C)CCC=C(C)CCC=C(C)CCC=C(C)CCC=C(C)CCC=C(C)CCC=C(C)CCC=C(C)C", "note": "[Decaprenyl brassidate]", "values": [{"measurement": "LD50", "setting": "[1]", "result": "> 4000", "unit": "mg/kg"}, {"measurement": "Curative effect (curative ratio)", "setting": "[2]", "result": "++ (25%-40%)"}]}
{"smiles": "CC(C)=CCCC(C)=CCCC(C)=CCCC(=O)OCC=C(C)CCC=C(C)CCC=C(C)CCC=C(C)CCC=C(C)CCC=C(C)CCC=C(C)CCC=C(C)CCC=C(C)CCC=C(C)C", "note": "[Decaprenyl farnesylacetate]", "values": [{"measurement": "LD50", "setting": "[1]", "result": "> 5000", "unit": "mg/kg"}, {"measurement": "Curative effect (curative ratio)", "setting": "[2]", "result": "+ (10%-25%)"}]}
{"smiles": "CC(C)=CCCC(C)=CCCC(=O)OCC=C(C)CCC=C(C)CCC=C(C)CCC=C(C)CCC=C(C)CCC=C(C)CCC=C(C)CCC=C(C)CCC=C(C)CCC=C(C)C", "note": "[Decaprenyl geranylacetate]", "values": [{"measurement": "LD50", "setting": "[1]", "result": "> 5000", "unit": "mg/kg"}, {"measurement": "Curative effect (curative ratio)", "setting": "[2]", "result": "+ (10%-25%)"}]}
{"smiles": "CCCCCCCCCCC/C=C\\CCCCC(=O)OCC=C(C)CCC=C(C)CCC=C(C)CCC=C(C)CCC=C(C)CCC=C(C)CCC=C(C)CCC=C(C)CCC=C(C)CCC=C(C)C", "note": "[Decaprenyl petroselinate]", "values": [{"measurement": "LD50", "setting": "[1]", "result": "> 4000", "unit": "mg/kg"}, {"measurement": "Curative effect (curative ratio)", "setting": "[2]", "result": "++ (25%-40%)"}]}
{"smiles": "CC(C)=CCCC(C)=CCCC(C)=CCCC(C)=CCCC(C)=CCCC(C)=CCCC(C)=CCCC(C)=CCCC(C)=CCCC(=O)OCC=C(C)CCC=C(C)CCC=C(C)CCC=C(C)CCC=C(C)CCC=C(C)CCC=C(C)CCC=C(C)CCC=C(C)CCC=C(C)C", "note": "[Decaprenyl solanesylacetate]", "values": [{"measurement": "LD50", "setting": "[1]", "result": "> 5000", "unit": "mg/kg"}, {"measurement": "Curative effect (curative ratio)", "setting": "[2]", "result": "+ (10%-25%)"}]}
{"smiles": "CCOC(=O)CCC=C(C)CCC=C(C)CCC=C(C)CCC=C(C)CCC=C(C)CCC=C(C)CCC=C(C)CCC=C(C)CCC=C(C)CCC=C(C)C", "note": "[Ethyl decaprenylacetate]", "values": [{"measurement": "LD50", "setting": "[1]", "result": "> 4000", "unit": "mg/kg"}, {"measurement": "Curative effect (curative ratio)", "setting": "[2]", "result": "+++ (40%-)"}]}
{"smiles": "CCOC(=O)CCC=C(C)CCC=C(C)CCC=C(C)CCC=C(C)CCC=C(C)CCC=C(C)CCC=C(C)CCC=C(C)CCC=C(C)C", "note": "[Ethyl solanesylacetate]", "values": [{"measurement": "LD50", "setting": "[1]", "result": "> 4000", "unit": "mg/kg"}, {"measurement": "Curative effect (curative ratio)", "setting": "[2]", "result": "++ (25%-40%)"}]}
{"smiles": "CC(C)=CCCC(C)=CCCC(C)=CCCC(C)=CCCC(C)=CCCC(C)=CCCC(C)=CCCC(C)=CCCC(C)=CCCC(C)=CCCC(=O)OCCC(C)C", "note": "[Isoamyl decaprenylacetate]", "values": [{"measurement": "LD50", "setting": "[1]", "result": "> 4000", "unit": "mg/kg"}, {"measurement": "Curative effect (curative ratio)", "setting": "[2]", "result": "+ (10%-25%)"}]}
{"smiles": "CC(C)=CCCC(C)=CCCC(C)=CCCC(C)=CCCC(C)=CCCC(C)=CCCC(C)=CCCC(C)=CCCC(C)=CCCC(C)=CCCC(=O)OC(C)C", "note": "[Isopropyl decaprenylacetate]", "values": [{"measurement": "LD50", "setting": "[1]", "result": "> 4000", "unit": "mg/kg"}, {"measurement": "Curative effect (curative ratio)", "setting": "[2]", "result": "+ (10%-25%)"}]}
{"smiles": "COC(=O)CCC=C(C)CCC=C(C)CCC=C(C)CCC=C(C)CCC=C(C)CCC=C(C)CCC=C(C)CCC=C(C)CCC=C(C)CCC=C(C)C", "note": "[Methyl decaprenylacetate]", "values": [{"measurement": "LD50", "setting": "[1]", "result": "> 4000", "unit": "mg/kg"}, {"measurement": "Curative effect (curative ratio)", "setting": "[2]", "result": "++ (25%-40%)"}]}
{"smiles": "COC(=O)CCC=C(C)CCC=C(C)CCC=C(C)CCC=C(C)CCC=C(C)CCC=C(C)CCC=C(C)CCC=C(C)CCC=C(C)C", "note": "[Methyl solanesylacetate]", "values": [{"measurement": "LD50", "setting": "[1]", "result": "> 4000", "unit": "mg/kg"}, {"measurement": "Curative effect (curative ratio)", "setting": "[2]", "result": "++ (25%-40%)"}]}
{"smiles": "CCCCCCCCC1OC1CCCCCCCC(=O)OC/C=C(\\C)CCC[C@H](C)CCC[C@H](C)CCCC(C)C", "note": "(stereo partly shown) [Phytyl 9,10-epoxystearate]", "values": [{"measurement": "LD50", "setting": "[1]", "result": "> 5000", "unit": "mg/kg"}, {"measurement": "Curative effect (curative ratio)", "setting": "[2]", "result": "+ (10%-25%)"}]}
{"smiles": "CCCCCCCC/C=C/CCCCCCCC(=O)OC/C=C(\\C)CCC[C@H](C)CCC[C@H](C)CCCC(C)C", "note": "[Phytyl elaidate]", "values": [{"measurement": "LD50", "setting": "[1]", "result": "> 4000", "unit": "mg/kg"}, {"measurement": "Curative effect (curative ratio)", "setting": "[2]", "result": "+ (10%-25%)"}]}
{"smiles": "CCCCC/C=C\\C/C=C\\CCCCCCCC(=O)OC/C=C(\\C)CCC[C@H](C)CCC[C@H](C)CCCC(C)C", "note": "[Phytyl linoleate]", "values": [{"measurement": "LD50", "setting": "[1]", "result": "> 4000", "unit": "mg/kg"}, {"measurement": "Curative effect (curative ratio)", "setting": "[2]", "result": "+ (10%-25%)"}]}
{"smiles": "CCCCCCCCCCC/C=C\\CCCCC(=O)OC/C=C(\\C)CCC[C@H](C)CCC[C@H](C)CCCC(C)C", "note": "[Phytyl petroselinate]", "values": [{"measurement": "LD50", "setting": "[1]", "result": "> 5000", "unit": "mg/kg"}, {"measurement": "Curative effect (curative ratio)", "setting": "[2]", "result": "++ (25%-40%)"}]}
{"smiles": "CCCCCC[C@@H](O)C/C=C\\CCCCCCCC(=O)OC/C=C(\\C)CCC[C@H](C)CCC[C@H](C)CCCC(C)C", "note": "[Phytyl ricinoleate]", "values": [{"measurement": "LD50", "setting": "[1]", "result": "> 5000", "unit": "mg/kg"}, {"measurement": "Curative effect (curative ratio)", "setting": "[2]", "result": "+ (10%-25%)"}]}
